Measured values reported in US12077503B2, “Substituted cyclic amides and their use as herbicides” (FMC CORPORATION, priority 2015, dated 2024).

How the values were obtained:
Format in all cases: in vivo
[1] = system: barnyardgrass (Echinochloa crus-galli); experiment: Test B flooded paddy test; conditions: Echinochloa crus-galli, Flood, 250 g ai/ha; scale of 0 to 100 where 0 is no effect and 100 is complete control; read-out: Barnyardgrass plant response rating
Procedure, shortened: (§1)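 Response scored visually against untreated controls, 0 = no effect and 100 = complete control, 13–15 d after treatment in the greenhouse. Compounds added to paddy water held 3 cm above soil surface. Treatment given at 2-leaf stage.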

[2] = system: sedge, umbrella (small-flower umbrella sedge, Cyperus difformis); experiment: Test B flooded paddy test; conditions: Cyperus difformis, 250 g ai/ha, Flood; 0 to 100 scale where 0 is no effect and 100 is complete control; read-out: Sedge, Umbrella plant response rating
Procedure, shortened: as §1

rice (Oryra sativa) = experiment: Test B flooded paddy test; conditions: Oryza sativa, Flood, 250 g ai/ha; scale of 0 to 100 where 0 is no effect and 100 is complete control; read-out: Rice plant response rating
Procedure, shortened: as §1

[3] = system: ducksalad (Heteranthera limosa); experiment: Test B flooded paddy test; conditions: Heteranthera limosa, Flood, 250 g ai/ha; scale of 0 to 100 where 0 is no effect and 100 is complete control; read-out: Ducksalad plant response rating
Procedure, shortened: as §1

[4] = system: barnyardgrass (Echinochloa crus-galli); experiment: Test A preemergence; conditions: Echinochloa crus-galli, pre-emergence, 240 h, Preemergence
Procedure, shortened: (§2)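 Visual injury scores from 0, no effect, to 100, complete control, were assigned versus untreated controls roughly 10 d after treatment in the greenhouse. Test chemicals, formulated with surfactant in a non-phytotoxic solvent, were applied to planted seeds as a preemergence soil spray or postemergence to one- to two-leaf plants 2 to 10 cm tall, in loam–sand soil.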

[5] = system: giant foxtail (Setaria faberii); experiment: Test A preemergence; conditions: Setaria faberi, pre-emergence, 240 h, Preemergence
Procedure, shortened: as §2

[6] = system: pigweed (Amaranthus retroflexus); experiment: Test A preemergence; conditions: Amaranthus retroflexus, pre-emergence, 240 h, Preemergence
Kochia (Kochia scoparia) [7] = experiment: Test A preemergence; conditions: Bassia scoparia, pre-emergence, 240 h, Preemergence
Procedure, shortened: as §2

[8] = system: ryegrass, Italian (Italian ryegrass, Lolium multiflorum); experiment: Test A preemergence; conditions: Lolium multiflorum, pre-emergence, 240 h, Preemergence
Procedure, shortened: as §2

[9] = system: ragweed (common ragweed, Ambrosia elatior); experiment: Test A preemergence; conditions: Ambrosia artemisiifolia, pre-emergence, 240 h, Preemergence
Procedure, shortened: as §2

[10] = system: barnyardgrass (Echinochloa crus-galli); experiment: Test A postemergence; conditions: Echinochloa crus-galli, post-emergence, 240 h, Postemergence, read-out: Plant response rating, Barnyardgrass
Procedure, shortened: as §2

corn (Zea mays) = experiment: Test A postemergence; conditions: Zea mays, post-emergence, 240 h, Postemergence
Procedure, shortened: as §2

[11] = system: Galium (catchweed bedstraw, Galium aparine); experiment: Test A postemergence; conditions: Galium, post-emergence, 240 h, Postemergence, read-out: Plant response rating, Galium
Procedure, shortened: as §2

[12] = system: wheat (Triticum aestivum); experiment: Test A postemergence; conditions: Triticum aestivum, post-emergence, 240 h, Postemergence, read-out: Plant response rating, Wheat
Procedure, shortened: as §2

[13] = system: giant foxtail (Setaria faberii); experiment: Test A postemergence; conditions: Setaria faberi, post-emergence, 240 h, Postemergence, read-out: Plant response rating, Foxtail, Giant
Procedure, shortened: as §2

[14] = system: pigweed (Amaranthus retroflexus); experiment: Test A postemergence; conditions: Amaranthus retroflexus, post-emergence, 240 h, Postemergence, read-out: Plant response rating, Pigweed
Procedure, shortened: as §2

[15] = system: blackgrass (Alopecurus myosuroides); experiment: Test A postemergence; conditions: Alopecurus myosuroides, post-emergence, 240 h, Postemergence, read-out: Plant response rating, Blackgrass
Procedure, shortened: as §2

Kochia (Kochia scoparia) [16] = experiment: Test A postemergence; conditions: Bassia scoparia, post-emergence, 240 h, Postemergence, read-out: Plant response rating, Kochia
Procedure, shortened: as §2

[17] = system: ryegrass, Italian (Italian ryegrass, Lolium multiflorum); experiment: Test A postemergence; conditions: Lolium multiflorum, post-emergence, 240 h, Postemergence, read-out: Plant response rating, Ryegrass, Italian
Procedure, shortened: as §2

[18] = system: ragweed (common ragweed, Ambrosia elatior); experiment: Test A postemergence; conditions: Ambrosia artemisiifolia, post-emergence, 240 h, Postemergence, read-out: Plant response rating, Ragweed
Procedure, shortened: as §2

[19] = 125 g ai/ha, visual injury after approximately 10 d, 0 to 100 scale where 0 is no effect and 100 is complete control
[20] = 31 g ai/ha, visual injury after approx. 10 d, 0 to 100 scale, 0 no effect, 100 complete control

O=C(Nc1cccc(F)c1F)[C@H]1C(=O)N(OCc2ccccc2)CC[C@@H]1c1cccc(Cl)c1 [Compound 997]
0%: pest or weed control at 250 g/ha [1] | pest or weed control at 250 g/ha [2] | pest or weed control at 250 g/ha (rice (Oryra sativa)) | pest or weed control at 250 g/ha [3] | pest or weed control at 125 g/ha ([4]; 125 g ai/ha, visual injury rating after approximately 10 d, read-out: Barnyardgrass plant response rating (0 to 100 scale, 0 is no effect, 100 is complete control)) | pest or weed control at 31 g/ha ([4]; 31 g ai/ha, 0 to 100 scale (0 no effect, 100 complete control), read-out: Plant response rating, Barnyardgrass) | pest or weed control at 125 g/ha ([5]; 125 g ai/ha, visual injury rating after approximately 10 d, read-out: Foxtail, Giant plant response rating (0 to 100 scale, 0 is no effect, 100 is complete control)) | pest or weed control at 31 g/ha ([5]; 31 g ai/ha, 0 to 100 scale (0 no effect, 100 complete control), read-out: Plant response rating, Foxtail, Giant) | pest or weed control at 125 g/ha ([6]; 125 g ai/ha, visual injury rating after approximately 10 d, read-out: Pigweed plant response rating (0 to 100 scale, 0 is no effect, 100 is complete control)) | pest or weed control at 31 g/ha ([6]; 31 g ai/ha, 0 to 100 scale (0 no effect, 100 complete control), read-out: Plant response rating, Pigweed) | pest or weed control at 125 g/ha (Kochia (Kochia scoparia) [7]; 125 g ai/ha, visual injury rating after approximately 10 d, read-out: Kochia plant response rating (0 to 100 scale, 0 is no effect, 100 is complete control)) | pest or weed control at 31 g/ha (Kochia (Kochia scoparia) [7]; 31 g ai/ha, 0 to 100 scale (0 no effect, 100 complete control), read-out: Plant response rating, Kochia) | pest or weed control at 125 g/ha ([8]; 125 g ai/ha, visual injury rating after approximately 10 d, read-out: Ryegrass, Italian plant response rating (0 to 100 scale, 0 is no effect, 100 is complete control)) | pest or weed control at 31 g/ha ([8]; 31 g ai/ha, 0 to 100 scale (0 no effect, 100 complete control), read-out: Plant response rating, Ryegrass, Italian) | pest or weed control at 125 g/ha ([9]; 125 g ai/ha, visual injury rating after approximately 10 d, read-out: Ragweed plant response rating (0 to 100 scale, 0 is no effect, 100 is complete control)) | pest or weed control at 31 g/ha ([9]; 31 g ai/ha, 0 to 100 scale (0 no effect, 100 complete control), read-out: Plant response rating, Ragweed) | pest or weed control at 125 g/ha [10, 19] | pest or weed control at 31 g/ha [10, 20] | Corn plant response rating (crop injury, 0 = no effect, 100 = complete kill) at 125 g/ha (corn (Zea mays); [19]) | Corn plant response rating (crop injury, 0 = no effect, 100 = complete kill) at 31 g/ha (corn (Zea mays); [20]) | pest or weed control at 125 g/ha [11, 19] | pest or weed control at 31 g/ha [11, 20] | plant injury at 125 g/ha [12, 19] | plant injury at 31 g/ha [12, 20] | pest or weed control at 125 g/ha [13, 19] | pest or weed control at 31 g/ha [13, 20] | pest or weed control at 125 g/ha [14, 19] | pest or weed control at 31 g/ha [14, 20] | pest or weed control at 125 g/ha [15, 19] | pest or weed control at 31 g/ha [15, 20] | pest or weed control at 125 g/ha (Kochia (Kochia scoparia) [16]; [19]) | pest or weed control at 31 g/ha (Kochia (Kochia scoparia) [16]; [20]) | pest or weed control at 125 g/ha [17, 19] | pest or weed control at 31 g/ha [17, 20] | pest or weed control at 125 g/ha [18, 19] | pest or weed control at 31 g/ha [18, 20]
